{"source": "patent US9771625B2", "about": "“Monoamine oxidase inhibitors and methods for treatment and diagnosis of prostate cancer” (UNIVERSITY OF SOUTHERN CALIFORNIA, priority 2011, dated 2017)", "key": {"[1]": {"test_system": "C4-2B prostate cancer cells", "assay": "Laser-scanning confocal NIR imaging of cellular uptake and localization", "type": "cell-based, human", "settings": "C4-2B PCa cells", "excerpt": "Moreover, the two dyes also have strong emission at 820-860 nm upon excitation at 750-780 nm, which can be easily detected and visualized by NIR imaging equipment and laser-scanning confocal microscopes. Here, we resorted to the use of Zeiss LSM 510 confocal microscope as the imaging equipment. Although cellular uptake of the conjugate was uncertain, due to the similarity in structure, MHI-clorgyline conjugates were expected to have similar fluorescence properties as the NIR dye itself. Therefore, NIR imaging with laser-scanning confocal microscope was used to examine the cellular uptake of MHI-clorgyline in human prostate epithelial cancer cells (C4-2B). This cell line was selected due to its high levels of the expressed MAO-A.\n(§1) An imaging study with the newly synthesized MHI-clorgyline 10 was carried out (FIG. 11)."}, "MAO A": {"target": "T1, MAO A (Homo sapiens, UniProt P21397)", "T1 construct": "This cell line was selected due to its high levels of the expressed MAO-A; endogenous in cells; host or cells: C4-2B human prostate cancer cells", "T1 sequence (P21397 1-527)": "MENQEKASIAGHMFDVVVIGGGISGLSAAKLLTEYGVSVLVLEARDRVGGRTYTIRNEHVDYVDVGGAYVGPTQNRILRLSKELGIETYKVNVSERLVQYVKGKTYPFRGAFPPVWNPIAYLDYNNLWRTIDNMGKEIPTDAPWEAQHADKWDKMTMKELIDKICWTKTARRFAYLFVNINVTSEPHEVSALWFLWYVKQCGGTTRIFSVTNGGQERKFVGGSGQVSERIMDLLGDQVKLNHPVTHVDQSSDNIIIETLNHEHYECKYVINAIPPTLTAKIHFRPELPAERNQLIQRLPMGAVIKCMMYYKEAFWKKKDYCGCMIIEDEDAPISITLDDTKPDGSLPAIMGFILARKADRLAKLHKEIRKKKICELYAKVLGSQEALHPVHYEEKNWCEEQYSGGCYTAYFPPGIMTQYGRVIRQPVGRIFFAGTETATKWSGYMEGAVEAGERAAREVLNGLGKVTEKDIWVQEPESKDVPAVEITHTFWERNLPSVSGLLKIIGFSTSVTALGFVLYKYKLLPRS", "assay": "MAO A inhibition assay in C4-2B cells with radiolabeled substrate (C-14 serotonin)", "type": "cell-based", "protocol": "Compound 10 was pre-incubated with 1×10^6 prostate C4-2B cells at 37° C. for 20 min. Then, MAO A substrate C-14 serotonin was added to the incubation solution for 37° C. 20 min. At the end of the incubation, the reaction product was extracted and the radioactivity was counted. The MAO-A activity was expressed as […] product formed/20 min/mg protein. The activity without the presence of inhibitor, compound 10, was taken as 100%.\nIn order to test an inhibitory activity of the MHI-clorgyline 10, a standard MAO A inhibition assay was carried out in C4-2B cells using radiolabeled substrates."}, "[2]": {"test_system": "tumor xenografts and spontaneous tumors in transgenic mice", "settings": "cited from earlier work"}, "live cells": {"test_system": "live cells", "assay": "Preliminary imaging study of IR-783 dye in live cells", "type": "cell-based", "protocol": "as §1"}, "[3]": {"test_system": "control and MAO-A-overexpressing PC-3 tumor xenografts", "assay": "In vivo and ex vivo MHI-148 NIR imaging of PC-3 tumor xenografts", "set-up": "species or system nude mice", "excerpt": "FIG. 19 MAO-A enhanced NIR dye uptake in PC-3 tumor xenografts. (A) Representative in vivo MHI-148 NIR imaging (i.p. injection, 10 nmol/20 g) of nude mice subcutaneously implanted with control (left flank) and MAO-A-overexpressing (right flank) PC-3 cells. Arrows point to tumor xenografts. […] (C) Quantitation of tumor NIR intensity in (A) by determining total emission divided by tumor weight (5 mice). *, p<0.05.\nA class of fluorescent heptamethine cyanines with near-infrared (NIR) emission maxima, such as MHI-148 dye, which has been identified recently, are non-toxic and have dual functions as tumor-specific targeting and imaging modalities. These dyes, partially mediated by hypoxia, are specifically retained in cancer but not normal cells, and also in tumor xenografts as well as spontaneous tumors in transgenic mice. […] This would allow the development and validation of novel PCa-seeking MAO-A inhibitors with acquired synergistic tumor-targeting abilities as new agents for PCa therapies with minimal systemic host toxicity."}, "[4]": {"test_system": "human prostate cancer cells", "assay": "Growth of prostate cancer cells in vitro", "type": "cell-based", "excerpt": "(§2) In the present invention, it was unexpectedly discovered that increase of MAO-A activity or expression is correlated with the progression of human prostate cancer. […] This finding establishes MAOs as a target for cancer."}, "tumor xenografts": {"test_system": "tumor xenografts", "assay": "Growth of tumor xenografts in vivo", "excerpt": "as §2"}}}
{"molecule": "C#CCN(CCCOc1ccc(Cl)cc1Cl)CCCSC(=O)CCCCCN1/C(=C\\C=C2/CCCC(/C=C/C3=[N+](CCCCCC(=O)O)c4ccccc4C3(C)C)=C2Cl)C(C)(C)c2ccccc21", "note": "[Compound 10]", "values": [{"measurement": "subcellular localization", "setting": "[1]; co-staining with mitochondria-specific dye", "value": "localized in the mitochondria"}, {"measurement": "cellular accumulation", "setting": "[1]; confocal imaging", "value": "rapid accumulation"}, {"measurement": "IC50", "setting": "MAO A; 37° C., 20 min pre-incubation, C-14 serotonin substrate", "value": 21.8, "unit": "µM"}, {"measurement": "MAO A inhibitory activity compared with clorgyline", "setting": "MAO A; data not shown", "value": "lesser than that of clorgyline itself"}]}
{"molecule": "CC1(C)C(=CC=C2CCCC(C=CC3=[N+](CCCCS(=O)(=O)[O-])c4ccccc4C3(C)C)=C2Cl)N(CCCCS(=O)(=O)[O-])c2ccccc21.[Na+]", "note": "[IR-783]", "values": [{"measurement": "retention in cancer cells versus normal cells", "setting": "[2]", "value": "retained in cancer cells but not normal cells"}, {"measurement": "subcellular localization", "setting": "live cells", "value": "co-localized in mitochondria"}]}
{"molecule": "CC1(C)C(/C=C/C2=C(Cl)C(=C/C=C3/N(CCCCCC(=O)O)c4ccccc4C3(C)C)/CCC2)=[N+](CCCCCC(=O)O)c2ccccc21", "note": "[MHI-148]", "values": [{"measurement": "retention in cancer cells versus normal cells", "setting": "[2]", "value": "retained in cancer cells but not normal cells"}, {"measurement": "NIR dye uptake in tumor xenografts", "setting": "[3]; MAO-A-overexpressing vs control PC-3 xenografts, i.p. injection, 10 nmol/20 g", "value": "enhanced uptake"}, {"measurement": "ex vivo NIR signal in tumor tissues versus organs", "setting": "[3]; ex vivo NIR imaging, nude mice with PC-3 xenografts", "value": "Tumor tissues but not organs displayed strong signals"}]}
{"molecule": "C#CCN(C)CCCOc1ccc(Cl)cc1Cl", "note": "[clorgyline]", "values": [{"measurement": "growth of human prostate cancer cells", "setting": "[4]", "value": "repressing the growth"}, {"measurement": "growth of tumor xenografts", "setting": "tumor xenografts", "value": "repressing the growth"}]}
